Assay results taken from the NIST ThermoML archive (doi:10.1021/je1003065).
± gives the expanded uncertainty stated by the source.

Test: mn = molality of the nth substance listed, in mol/kg
Conditions: Liquid, Vibrating tube method

`[Br-].[Li+]` [lithium bromide] + CCO showed a mass density (348.15 K, 5002 kPa, m1 = 0.2335) of 761.71 ± 1.5 kg/m3, a mass density (348.15 K, 5002 kPa, m1 = 1.462) of 838.72 ± 1.7 kg/m3 and a mass density (348.15 K, 5004 kPa, m1 = 0.9499) of 807.6 ± 1.6 kg/m3. For the same compound, the mass density (348.15 K, 5004 kPa, m1 = 2.272) was 885.02 ± 1.8 kg/m3, the mass density (348.15 K, 5012 kPa, m1 = 2.833) was 915.98 ± 1.8 kg/m3 and the mass density (348.15 K, 5024 kPa, m1 = 3.368) was 943.65 ± 1.9 kg/m3. For the same compound, the mass density (348.15 K, 5412 kPa, m1 = 0.5972) was 785.83 ± 1.6 kg/m3, the mass density (348.15 K, 10064 kPa, m1 = 0.9499) was 812.44 ± 1.6 kg/m3 and the mass density (348.15 K, 19957 kPa, m1 = 2.833) was 928.46 ± 1.9 kg/m3. For the same compound, the mass density (348.15 K, 19985 kPa, m1 = 0.2335) was 776.82 ± 1.6 kg/m3, the mass density (348.15 K, 19985 kPa, m1 = 0.9499) was 821.56 ± 1.7 kg/m3 and the mass density (348.15 K, 20024 kPa, m1 = 1.462) was 852.51 ± 1.7 kg/m3. It also gave a mass density (348.15 K, 29942 kPa, m1 = 0.9499) of 830.19 ± 1.7 kg/m3, a mass density (348.15 K, 29985 kPa, m1 = 3.368) of 963.31 ± 1.9 kg/m3 and a mass density (348.15 K, 39784 kPa, m1 = 0.9499) of 838.22 ± 1.7 kg/m3. The mass density (348.15 K, 39945 kPa, m1 = 0.5972) was 816.93 ± 1.7 kg/m3, the mass density (348.15 K, 39947 kPa, m1 = 0.2335) was 794.15 ± 1.6 kg/m3 and the mass density (348.15 K, 39957 kPa, m1 = 2.833) was 943.19 ± 1.9 kg/m3. The mass density (348.15 K, 39978 kPa, m1 = 3.368) was 970.26 ± 1.9 kg/m3, the mass density (348.15 K, 40002 kPa, m1 = 1.462) was 868.51 ± 1.8 kg/m3 and the mass density (348.15 K, 49921 kPa, m1 = 2.272) was 920.25 ± 1.9 kg/m3. For the same compound, the mass density (348.15 K, 49926 kPa, m1 = 2.833) was 949.82 ± 1.9 kg/m3, the mass density (348.15 K, 49927 kPa, m1 = 0.9499) was 845.97 ± 1.7 kg/m3 and the mass density (348.15 K, 59947 kPa, m1 = 0.2335) was 809.42 ± 1.7 kg/m3. It also gave a mass density (348.15 K, 59956 kPa, m1 = 0.5972) of 831.96 ± 1.7 kg/m3, a mass density (348.15 K, 59986 kPa, m1 = 1.462) of 882.36 ± 1.8 kg/m3 and a mass density (348.15 K, 60002 kPa, m1 = 0.9499) of 853.14 ± 1.8 kg/m3. For the same compound, the mass density (348.15 K, 60024 kPa, m1 = 3.368) was 982.97 ± 2 kg/m3, the mass density (348.15 K, 69784 kPa, m1 = 0.9499) was 859.6 ± 1.8 kg/m3 and the mass density (348.15 K, 69784 kPa, m1 = 2.272) was 932.62 ± 1.9 kg/m3. The mass density (348.15 K, 70024 kPa, m1 = 2.833) was 962.07 ± 1.9 kg/m3, the mass density (348.15 K, 79325 kPa, m1 = 0.9499) was 865.42 ± 1.8 kg/m3 and the mass density (348.15 K, 79924 kPa, m1 = 3.368) was 994.3 ± 2 kg/m3. The mass density (348.15 K, 79956 kPa, m1 = 1.462) was 894.65 ± 1.8 kg/m3, the mass density (348.15 K, 80004 kPa, m1 = 0.2335) was 822.02 ± 1.8 kg/m3 and the mass density (348.15 K, 80021 kPa, m1 = 0.5972) was 844.82 ± 1.8 kg/m3. The mass density (348.15 K, 89923 kPa, m1 = 3.368) was 999.65 ± 2 kg/m3, the mass density (348.15 K, 89926 kPa, m1 = 0.2335) was 827.8 ± 1.8 kg/m3 and the mass density (348.15 K, 89931 kPa, m1 = 2.272) was 944.08 ± 1.9 kg/m3. For the same compound, the mass density (348.15 K, 89932 kPa, m1 = 1.462) was 900.39 ± 1.9 kg/m3, the mass density (348.15 K, 89935 kPa, m1 = 0.9499) was 871.34 ± 1.8 kg/m3 and the mass density (348.15 K, 89954 kPa, m1 = 2.833) was 973.13 ± 2 kg/m3. The mass density (348.15 K, 99845 kPa, m1 = 1.462) was 905.92 ± 1.9 kg/m3, the mass density (348.15 K, 99934 kPa, m1 = 3.368) was 1004.87 ± 2 kg/m3 and the mass density (348.15 K, 99935 kPa, m1 = 0.9499) was 876.39 ± 1.9 kg/m3. The mass density (348.15 K, 99945 kPa, m1 = 2.272) was 949.54 ± 1.9 kg/m3, the mass density (348.15 K, 99957 kPa, m1 = 0.2335) was 833.35 ± 1.8 kg/m3 and the mass density (348.15 K, 99968 kPa, m1 = 2.833) was 978.42 ± 2 kg/m3. For the same compound, the mass density (348.15 K, 99985 kPa, m1 = 0.5972) was 855.43 ± 1.8 kg/m3, the mass density (348.16 K, 10021 kPa, m1 = 2.272) was 890.16 ± 1.8 kg/m3 and the mass density (348.16 K, 10032 kPa, m1 = 3.368) was 947.88 ± 1.9 kg/m3. The mass density (348.16 K, 10034 kPa, m1 = 1.462) was 843.52 ± 1.7 kg/m3, the mass density (348.16 K, 19902 kPa, m1 = 0.5972) was 799.98 ± 1.6 kg/m3 and the mass density (348.16 K, 29784 kPa, m1 = 2.272) was 906.12 ± 1.8 kg/m3. It also gave a mass density (348.16 K, 30024 kPa, m1 = 2.833) of 936.13 ± 1.9 kg/m3, a mass density (348.16 K, 49923 kPa, m1 = 0.2335) of 802.07 ± 1.7 kg/m3 and a mass density (348.16 K, 49952 kPa, m1 = 3.368) of 976.77 ± 2 kg/m3. For the same compound, the mass density (348.16 K, 59932 kPa, m1 = 2.272) was 926.65 ± 1.9 kg/m3, the mass density (348.16 K, 69784 kPa, m1 = 1.462) was 888.55 ± 1.8 kg/m3 and the mass density (348.16 K, 70013 kPa, m1 = 0.5972) was 838.69 ± 1.8 kg/m3. The mass density (348.16 K, 79926 kPa, m1 = 2.833) was 967.67 ± 1.9 kg/m3, the mass density (348.17 K, 50201 kPa, m1 = 1.462) was 875.81 ± 1.8 kg/m3 and the mass density (348.17 K, 69845 kPa, m1 = 0.2335) was 816.09 ± 1.7 kg/m3. For the same compound, the mass density (353.09 K, 80053 kPa, m1 = 1.462) was 891.89 ± 1.8 kg/m3, the mass density (353.1 K, 9980 kPa, m1 = 1.462) was 839.5 ± 1.7 kg/m3 and the mass density (353.1 K, 19703 kPa, m1 = 1.462) was 848.5 ± 1.7 kg/m3. It also gave a mass density (353.1 K, 29947 kPa, m1 = 1.462) of 857.25 ± 1.7 kg/m3, a mass density (353.1 K, 39836 kPa, m1 = 1.462) of 865.06 ± 1.8 kg/m3 and a mass density (353.1 K, 49993 kPa, m1 = 1.462) of 872.5 ± 1.8 kg/m3. The mass density (353.1 K, 60279 kPa, m1 = 1.462) was 879.53 ± 1.8 kg/m3, the mass density (353.1 K, 69928 kPa, m1 = 1.462) was 885.72 ± 1.8 kg/m3 and the mass density (353.1 K, 89979 kPa, m1 = 1.462) was 897.68 ± 1.9 kg/m3. For the same compound, the mass density (353.1 K, 99915 kPa, m1 = 1.462) was 903.29 ± 1.9 kg/m3, the mass density (353.11 K, 5043 kPa, m1 = 1.462) was 834.64 ± 1.7 kg/m3 and the mass density (353.13 K, 1217 kPa, m1 = 1.462) was 830.74 ± 1.7 kg/m3. For the same compound, the mass density (353.13 K, 5143 kPa, m1 = 0.5972) was 781.1 ± 1.6 kg/m3, the mass density (353.13 K, 10028 kPa, m1 = 2.272) was 886.04 ± 1.8 kg/m3 and the mass density (353.13 K, 20124 kPa, m1 = 2.272) was 895.23 ± 1.8 kg/m3. It also gave a mass density (353.13 K, 29947 kPa, m1 = 2.272) of 902.89 ± 1.8 kg/m3, a mass density (353.13 K, 89945 kPa, m1 = 0.2335) of 824.73 ± 1.8 kg/m3 and a mass density (353.13 K, 99992 kPa, m1 = 2.272) of 946.74 ± 1.9 kg/m3. The mass density (353.14 K, 9986 kPa, m1 = 2.833) was 916.2 ± 1.8 kg/m3, the mass density (353.14 K, 19985 kPa, m1 = 0.2335) was 772.17 ± 1.6 kg/m3 and the mass density (353.14 K, 20259 kPa, m1 = 0.5972) was 796.52 ± 1.6 kg/m3. It also gave a mass density (353.14 K, 29993 kPa, m1 = 0.5972) of 804.77 ± 1.6 kg/m3, a mass density (353.14 K, 39486 kPa, m1 = 2.272) of 909.8 ± 1.8 kg/m3 and a mass density (353.14 K, 49965 kPa, m1 = 2.833) of 946.54 ± 1.9 kg/m3. It also gave a mass density (353.14 K, 49994 kPa, m1 = 2.272) of 916.93 ± 1.9 kg/m3, a mass density (353.14 K, 60014 kPa, m1 = 2.272) of 924.01 ± 1.9 kg/m3 and a mass density (353.14 K, 69979 kPa, m1 = 2.272) of 929.91 ± 1.9 kg/m3. The mass density (353.14 K, 80071 kPa, m1 = 2.272) was 936.01 ± 1.9 kg/m3, the mass density (353.14 K, 89925 kPa, m1 = 2.833) was 970.1 ± 2 kg/m3 and the mass density (353.14 K, 89993 kPa, m1 = 2.272) was 941.4 ± 1.9 kg/m3. It also gave a mass density (353.15 K, 1023 kPa, m1 = 0.2335) of 752.56 ± 1.5 kg/m3, a mass density (353.15 K, 1302 kPa, m1 = 2.833) of 908.32 ± 1.8 kg/m3 and a mass density (353.15 K, 1405 kPa, m1 = 0.9499) of 799.45 ± 1.6 kg/m3. The mass density (353.15 K, 5002 kPa, m1 = 0.2335) was 756.87 ± 1.5 kg/m3, the mass density (353.15 K, 5015 kPa, m1 = 2.833) was 911.75 ± 1.8 kg/m3 and the mass density (353.15 K, 5074 kPa, m1 = 0.9499) was 803.32 ± 1.6 kg/m3. For the same compound, the mass density (353.15 K, 9985 kPa, m1 = 0.9499) was 808.32 ± 1.6 kg/m3, the mass density (353.15 K, 10021 kPa, m1 = 0.2335) was 762.65 ± 1.5 kg/m3 and the mass density (353.15 K, 19924 kPa, m1 = 0.9499) was 817.86 ± 1.6 kg/m3. The mass density (353.15 K, 19927 kPa, m1 = 2.833) was 924.6 ± 1.9 kg/m3, the mass density (353.15 K, 29784 kPa, m1 = 0.9499) was 826.6 ± 1.7 kg/m3 and the mass density (353.15 K, 29974 kPa, m1 = 0.2335) was 781.57 ± 1.6 kg/m3.
